Results as given in PMC10208570, “Peptidomimetic antibiotics disrupt the lipopolysaccharide transport bridge of drug-resistant Enterobacteriaceae” (Science Advances, 2023).
≈ marks a conversion by molar mass, not a printed value. Where a SMILES comes first, the peptide text is derived from it. Bridges are numbered along the chain shown (N, C = ends). [ ]: non-standard residue; d: D form. Hyp = O=C(O)[C@@H]1C[C@@H](O)CN1; Pen = CC(C)(S)[C@H](N)C(=O)O; dDab = NCC[C@@H](N)C(=O)O; Nle = CCCC[C@H](N)C(=O)O; Dab = NCC[C@H](N)C(=O)O

How the values were obtained:
[1] = test system: E. coli ATCC 25922 (parent / WT); test: microbe, parasite or virus in culture; conditions: for MIC E. coli ATCC 25922 Parent: CLSI method, parent strain
Method: (§1) MIC assays [Clinical and Laboratory Standards Institute (CLSI) methodology] and serial passage studies were performed as described by Luther et al. ([6]). […] Resistant mutants were isolated, and their MIC values were determined and sent to Microbes NG (Birmingham, United Kingdom) for whole-genome sequencing and bioinformatic analysis.

[2] = test system: E. coli ATCC 25922 LptA Q62L mutant; test: microbe, parasite or virus in culture; conditions: CLSI method; clone harboring LptA Q62L
Method: as §1

[3] = test system: K. pneumoniae ATCC 43816 (parent / WT); test: microbe, parasite or virus in culture; conditions: ATCC 43816
Method: as §1

[4] = test system: K. pneumoniae NCTC 13443 (NDM-1) (parent / WT); test: microbe, parasite or virus in culture; conditions: CLSI method; parent strain
Method: as §1

[5] = test system: K. pneumoniae NCTC 13443 (NDM-1) LptA Q62L mutant; test: microbe, parasite or virus in culture; conditions: for MIC K. pneumoniae NCTC 13443 (NDM-1) Q62L mutant: CLSI method, clone harboring LptA Q62L
Method: as §1

[6] = molecular target: T1, LptAm (Escherichia coli, UniProt P0ADV1); test: biochemical; assay type: binding, E. coli
T1 construct: His6-GB1 (N, cleaved yes); made in house; host or cells: E. coli BL21 (DE3)
Method: (§2) Protein stocks were purified and concentrated in buffer 1 [50 mM Na-Pi (pH 7) and 150 mM NaCl] and, if necessary, diluted to desired concentrations using buffer 2 [50 mM Na-Pi (pH 7), 150 mM NaCl, and 0.05% Tween 20]. Peptide stocks and fluorescently labeled peptide stocks were made in buffer 2. Every serial dilution consisted of 24 wells, the first well with the highest concentrate and the last well (well 24) with the lowest. First, 50 μl of buffer 2 was added to the wells 2 to 24 of each serial dilution. Then, 100 μl of concentrated unlabeled peptide/protein in their respective buffers was added to the first well. Fifty microliters were taken from the first well and added to the second well for a 1:1 serial dilution and continued for the 24 wells. […] Plates were covered with adhesive seals and left to incubate overnight at 4°C before FP measurements the next day. Anisotropy was measured using the Tecan Safire2 plate reader using a 10-nm bandwidth and setting the excitation and emission wavelengths to 635 and 670 nm, respectively. The G-factor (G) was also determined empirically as 1.094 for the instrument and included in all the anisotropy calculations.
(§3) For the indirect binding assays, r was calculated in the same manner as the direct binding assays. […] The control was subtracted from r to yield r′. Data were fit to a sigmoidal interpolation model on GraphPad Prism 9, and an IC50 was generated for each unlabeled peptide or protein measured.

[7] = molecular target: T2, LptAmQ62L (Escherichia coli, UniProt P0ADV1, Q62L); test: biochemical; assay type: binding, E. coli
T2 construct: His6-GB1 (N, cleaved yes); made in house; host or cells: E. coli BL21 (DE3)
Method: as §2, §3

[8] = test system: human red blood cells; test: Haemolysis; assay type: cell-based; conditions: PBS-washed human red blood cells; 1 h at 200 mg/liter, 37°C; OD 540 nm; versus 100% lysis control 2.5% Triton X-100; biological replicates
Method: To test their hemolytic potential, compounds were incubated in the presence of phosphate-buffered saline (PBS)–washed human red blood cells. After 1-hour incubation at 200 mg/liter and 37°C, the samples were centrifuged (3220g), the supernatants were diluted in Dulbecco’s PBS, and optical density at 540 nm was determined. The hemolysis induced by the compound was calculated versus a 100% lysis control prepared with 2.5% Triton X-100 (table S4A).

[9] = in vitro; assay type: cell-based; conditions: human
Method: The cytotoxicity of compounds was determined by determining the number of viable cells using the Sigma Cell Counting Kit-8 (WST-8). HeLa cells were incubated at 37°C and 5% CO2 for 24 hours, after which the medium was replaced with fresh medium containing dilutions of compounds. […]

[10] = Plasma protein binding; assay type: in vitro ADME, human; conditions: human, plasma, pH 7.5
Method: (§4) After ultrafiltration, protein binding was determined by subtracting the percentage of compound in ultrafiltrate from the total amount of compound in spiked plasma (table S4A).

[11] = Plasma protein binding; assay type: in vitro ADME, mouse; conditions: mouse, plasma, pH 7.5
Method: as §4

[12] = test system: Escherichia coli ATCC 25922 KdsD mutant; test: microbe, parasite or virus in culture; conditions: Table S9 panel; other mutation
Method: as §1

[13] = test system: Escherichia coli ATCC 25922 LptA E84D mutant; test: microbe, parasite or virus in culture; conditions: Table S9 panel
Method: as §1

[14] = test system: K. pneumoniae ATCC 43816 LptA Q62L mutant; test: microbe, parasite or virus in culture; conditions: Table S9 panel
Method: as §1

[15] = test system: Klebsiella pneumoniae ATCC 43816 LapB mutant; test: microbe, parasite or virus in culture; conditions: Table S9 panel; other mutation
Method: as §1

[16] = test system: Klebsiella pneumoniae ATCC 43816 LptA I36N mutant; test: microbe, parasite or virus in culture; conditions: Table S9 panel
Method: as §1

[17] = test system: Klebsiella pneumoniae ATCC 43816 LptA I36S mutant; test: microbe, parasite or virus in culture; conditions: Table S9 panel
Method: as §1

[18] = test system: Klebsiella pneumoniae ATCC 43816 LptA L116Q mutant; test: microbe, parasite or virus in culture; conditions: Table S9 panel
Method: as §1

[19] = test system: Klebsiella pneumoniae ATCC 43816 PglJ, PhnJ, ThiH mutant; test: microbe, parasite or virus in culture; conditions: Table S9 panel; other mutation
Method: as §1

[20] = test system: Klebsiella pneumoniae NCTC 13443 LptA I36S mutant; test: microbe, parasite or virus in culture; conditions: Table S9 panel
Method: as §1

[21] = test system: Klebsiella pneumoniae NCTC 13443 LpxC, LpxD mutant; test: microbe, parasite or virus in culture; conditions: Table S9 panel; other mutation
Method: as §1

[22] = test system: Klebsiella pneumoniae NCTC 13443 YejM mutant; test: microbe, parasite or virus in culture; conditions: Table S9 panel; other mutation
Method: as §1

T2 sequence (P0ADV1 28-159 Q62L): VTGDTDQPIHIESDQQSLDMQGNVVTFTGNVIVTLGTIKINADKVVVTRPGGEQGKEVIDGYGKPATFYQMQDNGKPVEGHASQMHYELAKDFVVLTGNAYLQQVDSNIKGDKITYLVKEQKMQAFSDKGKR
T1 sequence (P0ADV1 28-159): as the sequence (P0ADV1 28-159 Q62L) above, with L35Q counted along it

SMILES	MIC E. coli ATCC 25922 Parent [1] [micrograms per milliliter]	MIC E. coli ATCC 25922 Q62L mutant [2] [micrograms per milliliter]	MIC K. pneumoniae ATCC 43816 Parent [3] [micrograms per milliliter]	MIC K. pneumoniae NCTC 13443 (NDM-1) Parent [4] [micrograms per milliliter]	MIC K. pneumoniae NCTC 13443 (NDM-1) Q62L mutant [5] [micrograms per milliliter]	IC50 [6] [µM]	Ki [6] [µM]	IC50 [7] [µM]	Ki [7] [µM]	Haemolysis % at 0.2 g/L [8] [%]	IC50 at 48 h [9] [µM]	fraction unbound at 30 min, 10 mg/liter [10]	fraction unbound at 30 min, 10 mg/liter [11]	also measured
CCCC[C@H](NC(=O)[C@H](CCCNC(=N)N)NC(=O)[C@H](CCN)NC(=O)[C@@H]1CSSC[C@H](NC(=O)[C@H](Cc2ccc(O)cc2)NC(=O)[C@@H](NC(=O)[C@@H](NC(=O)[C@@H]2CCCN2C(=O)[C@@H](NC(=O)[C@@H]2CCCN2C(=O)[C@H](CCCCN)NC(=O)[C@@H](N)CCCCN)C(C)C)[C@@H](C)CC)[C@@H](C)CC)C(=O)N[C@@H](CC(N)=O)C(=O)N[C@@H](CCCNC(=N)N)C(=O)N[C@@H](CCCNC(=N)N)C(=O)N[C@@H]([C@@H](C)O)C(=O)NCC(=O)N[C@@H](CCCCN)C(=O)N1)C(=O)O [Compound 1] (H-KKPVPIIYCNRRTGKC[Dab]R[Nle]-OH; disulfide 9-16)	0.063	>8	0.25	0.5	>8	0.0066 ± 0.0005	0.0011 ± 0.0001	0.0304 ± 0.0088	0.0205 ± 0.006	0	158	0.24	0.14	–
CC[C@H](C)[C@H](NC(=O)[C@@H](NC(=O)[C@@H]1C[C@@H](O)CN1C(=O)[C@@H](N)C(C)C)[C@@H](C)CC)C(=O)N[C@@H](Cc1ccc(O)cc1)C(=O)N[C@@H]1C(=O)N[C@@H](CC(N)=O)C(=O)N[C@@H](CCCNC(=N)N)C(=O)N[C@@H](CCN)C(=O)N[C@@H]([C@@H](C)O)C(=O)N[C@H](CCN)C(=O)N[C@@H](CCCCN)C(=O)N[C@H](C(=O)N[C@@H](CCN)C(=O)N[C@@H](CCN)C(=O)N[C@@H](Cc2ccc(O)cc2)C(=O)O)CSSC1(C)C [Compound 5] (H-V[Hyp]IIY[Pen]NR[Dab]T[dDab]KC[Dab][Dab]Y-OH; disulfide 6-13)	0.063	0.25	0.25	1	4	0.0186 ± 0.0011	0.0031 ± 0.0002	0.0139 ± 0.0023	0.0094 ± 0.0015	0	1270	0.18	0.13	MIC Escherichia coli ATCC 25922 WT ([1]; Table S9 panel, WT): 0.125 µg/mL (≈ 0.0653 µM); MIC Escherichia coli ATCC 25922 KdsD (2x) [12]: 0.5 µg/mL (≈ 0.261 µM); MIC Escherichia coli ATCC 25922 LptA E84D (1x) [13]: 1 µg/mL (≈ 0.522 µM); MIC Klebsiella pneumoniae ATCC 43816 LptA Q62L (4x) [14]: 4 µg/mL (≈ 2.09 µM); MIC Klebsiella pneumoniae NCTC 13443 LptA Q62L (5x) ([5]; Table S9 panel): 8 µg/mL (≈ 4.18 µM); MIC Klebsiella pneumoniae ATCC 43816 LapB (1x) [15]: 0.5 µg/mL (≈ 0.261 µM); MIC Klebsiella pneumoniae ATCC 43816 LptA I36N (1x) [16]: 1 µg/mL (≈ 0.522 µM); MIC Klebsiella pneumoniae ATCC 43816 LptA I36S (1x) [17]: 1 µg/mL (≈ 0.522 µM); MIC Klebsiella pneumoniae ATCC 43816 LptA L116Q (1x) [18]: 1 µg/mL (≈ 0.522 µM); MIC Klebsiella pneumoniae ATCC 43816 PglJ, PhnJ, ThiH (1x) [19]: 0.5 µg/mL (≈ 0.261 µM); MIC Klebsiella pneumoniae NCTC 13443 LptA I36S (2x) [20]: 4 µg/mL (≈ 2.09 µM); MIC Klebsiella pneumoniae NCTC 13443 LpxC, LpxD (1x) [21]: 0.5 µg/mL (≈ 0.261 µM); MIC Klebsiella pneumoniae NCTC 13443 YejM (1x) [22]: 2 µg/mL (≈ 1.04 µM)
